This note sets out measurements from patent US5091521A, “Cis-platinum complexes, a process for the preparation thereof, and pharmaceuticals containing these compounds” (priority 1986, dated 1992).

In one data set the test system is L1210 leukemia. As to the kind of experiment: In vivo activity of the platinum complexes against L1210 leukemia of the mouse. Details: optimum Dose (greatest antitumoral effect), L1210: unit not given here. Conditions: for T/C % L1210 (at optimum dose): mean survival time vs untreated control; for cytostatic activity in the "in vivo" test using the L1210 tumor cell line: in words. The method, then:
c) In vivo activity of the platinum complexes against L1210 leukemia of the mouse
Ascitic fluid is removed under sterile conditions from DBA2 mice (female, 18-20 g) 7 days after implantation. The ascites is washed three times with PBS, counted, and adjusted to a cell number of 10^6 in 0.2 ml of PBS.
10^6 cells, suspended in 0.2 ml of PBS, are subsequently injected intraperitoneally into DBF1 mice (female, 18-20 g). 6 animals per group are employed for each substance concentration or as control.
Determination of the antitumoral activity
a) The animals are weighed on days 1 and 5 after injection of the test substance. A weight loss of more than 20% on day 5 is regarded as an indicator of a toxic substance action.
b) At the end of the experiment (death of all animals or surviving animals on day 60), the mean survival time of the animals in each group is determined, so long as at least 65% of the animals were still living on day 5 of the experiment. The average survival time is determined exclusively for animals dying during the experiment. Long-term survivors (LTS) are not taken into account in this calculation and are specified separately.
From the mean survival time (MST) of the […] group and of the control group (MSTc), the antitumoral activity (T/C) for each substance concentration is determined in per cent of the untreated control from the following formula: [formula]
The dose which causes the greatest antitumoral effect (optimal dosage) and in each case one dose step above and below this dose are collated in Table 1. Animals which are still living on day 60 of the experiment are listed separately as "long-term survivors".

The next data set relates to L1210 leukemia cells. Briefly: Colonization by L1210 leukemia cells in soft agar (cytostatic activity in vitro). The class given is cell-based, mouse. Conditions: L1210 colony formation in soft agar, 7 days. Here is the method:
The cytostatic activity of the compounds according to the invention is determined on L1210 leukemia cells of the mouse. In detail, the following test systems were used:
a) Colonization by L1210 leukemia cells in soft agar
In this test cytostatically active substances cause the number of colonies observed to be reduced compared to an untreated control. In detail, the test is carried out as follows:
500 leukemia cells per plate are incubated for 1 hour at 37° C. with different concentrations of the test substance. The cells are subsequently washed twice with McCoy 5A medium and finally poured out into petri dishes after adding 0.3% of agar. Controls are incubated only with fresh medium. Instead of incubating for one hour, different concentrations and test substances are in many cases mixed with the upper agar layer in order to thus achieve continuous exposition of the cells over the entire incubation time. After solidification of the agar, the plates are incubated in an incubator for 7 days at 37° C. (5% by volume of CO2, 95% relative atmospheric humidity). The number of colonies produced with a diameter of more than 60 μm is subsequently counted. The results are given as the number of colonies in the treated agar plate, in per cent of the untreated control. From the dose-action curve thus attained, the IC50 is determined as a measure of the activity of the substance.

The nature of the next data set: Solubility in water. The class given is physicochemical.
A further data set relates to NMRI mice. Briefly: Determination of the acute toxicity. The settings on record: 1 × i.p., survival on day 14. The format is in vivo, mouse. Here is the method:
b) Determination of the acute toxicity
In order to determine the acute toxicity, NMRI mice are injected intraperitoneally on day 0 with various doses of a test substance, dissolved in 0.5 ml of 5% glucose solution. Control groups receive only 0.5 ml of 5% strength glucose solution. 5 mice are used per concentration of the test substance. On day 14, the number of surviving mice is determined, and the LD5, LD50 and LD95 are determined from this according to the Lichtfield Wilcoxon method.

For data set [1], the system named is tumor cells which are resistant towards cis-platin. Briefly: Cross resistance to cis-diamminedichloroplatinum(II) in vitro / activity in cisplatin-resistant tumor cells. The settings on record: in words. The class given is cell-based.
Where [2] appears, read: treatment program 3 × i.p./i.p.
Where [3] appears, read: treatment program 5 × i.p./i.p.
The mark [4] stands for this setting: treatment program 2 × i.p./i.p.

With `N.N.[Cl][Pt][Cl]` [Cisplatin, cis-diamminedichloroplatinum (II), reference compound], in the data set with L1210 leukemia (setting [2]), the “optimum Dose (greatest antitumoral effect), L1210” value worked out at 4 and the “T/C % L1210 (at optimum dose)” value is given as 157%. Further, in the data set with L1210 leukemia cells, the IC50 was found to be 0.04 µg/mL.

Turning to `COCC(C)(CN)CN.[Cl][Pt][Cl]` [Compound 11, N,N'-(2-methoxymethyl-2-methyl-1,3-propanediamine)dichloro-platinum(II)], the IC50 in the data set with L1210 leukemia cells amounted to 1.4 µg/mL. Also, the Solubility in water in “Solubility in water” stood at 3 mg/mL.

Regarding `CCC(CN)(CN)COC.[Cl][Pt][Cl]` [Compound 12, N,N'-(2-ethyl-2-methoxymethyl-1,3-propanediamine)dichloro-platinum(II)], the LD50 with NMRI mice is listed as 19 mg/kg. In the data set with L1210 leukemia, the “cytostatic activity in the "in vivo" test using the L1210 tumor cell line” value is given as “high cytostatic activity”. Besides, in the data set with L1210 leukemia (setting [2]), the “optimum Dose (greatest antitumoral effect), L1210” value was 3 and the “T/C % L1210 (at optimum dose)” value stood at 227%. In the data set on L1210 leukemia cells, this molecule registered an IC50 of 0.5 µg/mL. For the same molecule, the “cross resistance in vitro to cis-diamminedichloroplatinum(II)” value in data set [1] is on record as “only partially cross resistant”.

As for `CC(CN)(CN)COCC(O)CO.[Cl][Pt][Cl]` (stereo not drawn) [Compound 13, N,N'-(2-(2',3'-dihydroxypropyloxymethyl)-2-methyl-1,3-propanediamine)dichloroplatinum(II)], the LD50 in the data set on NMRI mice worked out at 57.3 mg/kg. In addition, in the data set with L1210 leukemia (setting [3]), the “optimum Dose (greatest antitumoral effect), L1210” value is recorded as 8 and the “T/C % L1210 (at optimum dose)” value is reported as 156%. This molecule yielded an IC50 in the data set with L1210 leukemia cells of 1.25 µg/mL. The molecule further registered a Solubility in water in the data set “Solubility in water” of 25 mg/mL.

As for `COCC(O)COCC(C)(CN)CN.[Cl][Pt][Cl]` (stereo not drawn) [Compound 14, N,N'-(2-(2'-hydroxy-3'-methoxypropyloxymethyl)-2-methyl-1,3-propanediamine)dichloroplatinum(II)], in the data set on NMRI mice, the LD50 was 57.1 mg/kg. Further, in the data set with L1210 leukemia (setting [2]), the “optimum Dose (greatest antitumoral effect), L1210” value was determined as 4 and the “T/C % L1210 (at optimum dose)” value came out at 168%. This molecule also gave an IC50 in the data set on L1210 leukemia cells of 0.75 µg/mL. In addition, the Solubility in water in the data set “Solubility in water” turned out to be 16 mg/mL.

`CC(CN)(CN)CO[C@@H]1CC[C@H](O)[C@@H](CO)O1.[Cl][Pt][Cl]` [Compound 15, N,N'-(2-(2',3'-didesoxy-alpha-D-erythrohexopyranosyloxy-methyl)-2-methyl-1,3-propanediamine)dichloroplatinum(II)] gave an LD50 in the data set on NMRI mice of 1 to 5 mg/kg. For the same molecule, in the data set on L1210 leukemia cells, the IC50 was determined as 2.9 µg/mL. Further, the Solubility in water in the data set “Solubility in water” is 17 mg/mL.

Take `CC(=O)NC1(CO)C[NH][Pt]([Cl])([Cl])[NH]C1` [Compound 17, N,N'-(2-acetamido-2-hydroxymethyl-1,3-propanediamine)di-chloroplatinum(II)]: the LD50 in the data set with NMRI mice was in the range of 50 to 100 mg/kg. In addition, in the data set with L1210 leukemia (setting [2]), the “optimum Dose (greatest antitumoral effect), L1210” value was found to be 30 and the “T/C % L1210 (at optimum dose)” value turned out to be 113%. In addition, the IC50 in the data set on L1210 leukemia cells was 1.1 µg/mL. Moreover, in the data set “Solubility in water”, the Solubility in water worked out at 10 mg/mL.

`COCC(C)(CN)CN.O=C([O-])CC(=O)[O-].[Pt+2]` [Compound 30, N,N'-(2-methyloxymethyl-2-methyl-1,3-propanediamine)platinum(II) malonate] registered an IC50 with L1210 leukemia cells of 1.4 µg/mL.

In the data set with NMRI mice, `COCC(C)(CN)CN.O=C([O-])C1(C(=O)[O-])CCC1.[Pt+2]` [Compound 31, N,N'-(2-methyloxymethyl-2-methyl-1,3-propanediamine)platinum(II) 1,1-cyclobutanedicarboxylate] came in with an LD50 of 250 mg/kg. In the data set with L1210 leukemia (setting [4]), the “optimum Dose (greatest antitumoral effect), L1210” value turned out to be 112 and the “T/C % L1210 (at optimum dose)” value was found to be 226%. Further, the “LTS (Longterm survivor), L1210” value with L1210 leukemia (treatment program 2 × i.p./i.p., optimum dose, animals living on day 60) is listed as 3/6. The same molecule came in with an IC50 with L1210 leukemia cells of 2.6 µg/mL. For the same molecule, in “Solubility in water”, the Solubility in water turned out to be 15 mg/mL.

Take `CCC(CN)(CN)COC.O=C([O-])C1(C(=O)[O-])CCC1.[Pt+2]` [Compound 32, N,N'-(2-ethyl-2-methyloxymethyl-1,3-propanediamine)platinum(II) 1,1-cyclobutanedicarboxylate]: in the data set on NMRI mice, the LD50 came out at 437 mg/kg. Also, the “T/C % L1210 (at optimum dose)” value with L1210 leukemia (setting [3]) turned out to be 194%. Also, the IC50 in the data set on L1210 leukemia cells worked out at 3.6 µg/mL. Further, the Solubility in water in “Solubility in water” came to 70 mg/mL.

For `CCC(CN)(CN)COC.O=C([O-])CC(=O)[O-].[Pt+2]` [corresponding malonate derivative], the “cytostatic activity in the "in vivo" test using the L1210 tumor cell line” value in the data set with L1210 leukemia is on record as “high cytostatic activity”. In addition, the “cross resistance in vitro to cis-diamminedichloroplatinum(II)” value in data set [1] is reported as “only partially cross resistant”.
